Where two headings read alike, the source gives them in different places.
Key:
KLF4 [1] = test: KLF4 gene expression by RT-PCR, MOLT-4; assay type: cell-based, human; details: MOLT-4, relative to vehicle control as 1
Excerpt: (§1) Gene expression levels of KLF4, induced by compounds of Formula I, were also examined on various cancer cell types by RT-PCR. Fold changes in KLF4 in compound-treated cells were expressed relative to KLF4 expression in vehicle control-treated cells of respective cell type as “1”. […] Additionally, xenografts of MDA-MB-435 implanted into mammary fat pads of female SCID mice have shown immunohistochemical staining consistent with melanocytic origin (Ellison G, Klinowska T, Westwood R F, Docter E, French T, Fox J C. (2002) Mol Pathol. 55(5): 294-299). The breast cancer cell line MDA-MB-435 may be expected to function differently than the other breast cancer cell lines.

KLF4 [2] = test: KLF4 gene expression by RT-PCR, DU-145; assay type: cell-based, human; details: DU-145, relative to vehicle control as 1
Excerpt: as §1

KLF4 [3] = test: KLF4 gene expression by RT-PCR, HCT-116; assay type: cell-based, human; details: HCT-116, relative to vehicle control as 1
Excerpt: as §1

[4] = system: DU-145 prostate cancer cells; test: XTT cell proliferation assay, DU-145; assay type: cell-based, human; details: read-out: IC50 (cell growth inhibition)
Method: (§2) Cell growth inhibition IC50 (μM) by compounds of Formula I was tested on various cancer cell types by XTT cell proliferation assay. The growth inhibitory effects of the compounds of Formula I as shown below for the melanoma cell line SK-MEL-2 were reproducible by Lorus Therapeutics Inc.

[5] = system: human colon carcinoma HT-29 cells; test: XTT cell proliferation assay, HT-29; assay type: cell-based
Procedure, shortened: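 HT-29 cells in McCoy's 5A with 10% FBS, 37° C., 5% CO2, exposed to varying compound concentrations for 6-7 days. Viable cells quantified by XTT reduction to formazan; growth inhibition expressed as IC50 (μM).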

CCRF-CEM leukemia cells = test: XTT cell proliferation assay, CCRF-CEM; assay type: cell-based, human; details: read-out: IC50 (cell growth inhibition)
Method: as §2

KLF4 [6] = test: KLF4 gene expression by RT-PCR, MDA-MB-435; assay type: cell-based, human; details: MDA-MB-435, relative to vehicle control as 1
Excerpt: as §1

KLF4 [7] = test: KLF4 gene expression by RT-PCR, SK-MEL-2; assay type: cell-based, human; details: SK-MEL-2, relative to vehicle control as 1
Excerpt: as §1

MOLT-4 leukemia cells = test: XTT cell proliferation assay, MOLT-4; assay type: cell-based, human; details: read-out: IC50 (cell growth inhibition)
Method: as §2

KLF4 [8] = test: KLF4 gene expression by RT-PCR, MDA-MB-231; assay type: cell-based, human; details: MDA-MB-231, relative to vehicle control as 1
Excerpt: as §1

H-460 lung cancer cells = test: XTT cell proliferation assay, H-460; assay type: cell-based, human; details: read-out: IC50 (cell growth inhibition)
Method: as §2

KLF4 [9] = test: KLF4 gene expression by RT-PCR, PC-3; assay type: cell-based, human; details: PC-3, relative to vehicle control as 1
Excerpt: as §1

[10] = system: HCT-116 colon cancer cells; test: XTT cell proliferation assay, HCT-116; assay type: cell-based, human; details: read-out: IC50 (cell growth inhibition)
Method: as §2

KLF4 [11] = test: KLF4 gene expression by RT-PCR, H-460; assay type: cell-based, human; details: H-460, relative to vehicle control as 1
Excerpt: as §1
Expressions of KLF2, 4 and 6 genes in H-460 cells, treated with vehicle control or 2.5 μM compound 3 or compound 7, were measured by RT-PCR. Gene expression was presented relative to respective gene expression in vehicle control-treated group as “1”.

[12] = system: MDA-MB-231 breast cancer cells; test: XTT cell proliferation assay, MDA-MB-231; assay type: cell-based, human; details: read-out: IC50 (cell growth inhibition)
Method: as §2

[13] = system: MDA-MB-435 breast cancer cells; test: XTT cell proliferation assay, MDA-MB-435; assay type: cell-based, human; details: read-out: IC50 (cell growth inhibition)
Method: as §2

SK-MEL-2 melanoma cells = test: XTT cell proliferation assay, SK-MEL-2; assay type: cell-based, human; details: read-out: IC50 (cell growth inhibition)
Method: as §2

[14] = system: PC-3 prostate cancer cells; test: XTT cell proliferation assay, PC-3; assay type: cell-based, human; details: read-out: IC50 (cell growth inhibition)
Method: as §2

KLF4 [15] = test: KLF4 gene expression by RT-PCR, CCRF-CEM; assay type: cell-based, human; details: relative to vehicle control as 1
Excerpt: as §1

KLF4 [16] = test: KLF4 gene expression by RT-PCR, HT-29; assay type: cell-based, human; details: HT-29, relative to vehicle control as 1
Method: (§3) To determine whether compounds of Formula I can chelate zinc in cells, the effect of compound 3 on the expression level of a zinc-regulated gene, metallothionein 1A (MT1A), in human colon carcinoma HT-29 cells, was determined. HT-29 cells, 1×10^6 cells in 10 mL volume of the growth medium were seeded in 100 mm dishes and incubated overnight at 37° C. The medium was removed and replaced with the growth medium containing 35 μM ZnCl2, 1 μM or 4 μM TPEN (NNNN-tetrakis(2-pyridyl-methyl)ethylenediamine), or 1 μM or 4 μM compound 3, or 0.1% DMSO vehicle control. After incubation for 16 hours, the cells were detached by trypsinization, collected by centrifugation and washed once with PBS. Total RNA was extracted by using TRIZOL (Invitrogen, Life Technologies, Carlsbad, Calif.), following manufacturer's instruction, and the level of MT1A mRNA was measured by real time PCR using the comparative CT method as follows. First strand cDNA was synthesized from 200 ng total RNA in Biometra Tpersonal Thermal Cycler (Abgene, UK), using pd(N)6 random hexamer (Amersham Biosciences, Piscataway, N.J.) and SuperScript™ II Reverse Transcriptase kit (Invitrogen) by following manufacturer's protocol. Real-time PCR was performed in ABI Prism 7000 Sequence Detection System (Applied Biosystems Inc., ABI, Foster City, Calif.), using 5 μL of cDNA synthesized by above-mentioned procedure and respective TaqMan® Gene Expression Assays (ABI) by following ABI TaqMan® Universal PCR master mix protocol.
The ability of compounds of Formula I to modulate the mRNA level of a transition metal-regulated tumour suppressor gene was determined in vitro as follows. Compound 3 was tested to determine its ability to increase the expression of zinc-regulated tumour suppressor KLF4 mRNA in colon carcinoma HT-29 cells. […] HT-29 cells were incubated for 16 hours with DMSO as a vehicle control, 35 μM ZnCl2, 1 μM or 4 μM of compound 3, or 1 μM or 4 μM TPEN for 16 hours and mRNA was extracted from the cells as described in Example 19. The expression of KLF4 mRNA was analyzed by real-time polymerase chain reaction using the comparative CT method also as described in Example 19. Compound 3 induced the expression of KLF4 mRNA (approximately 8-fold) in HT-29 cells compared with HT-29 cells treated with vehicle alone (See FIG. 8).
as §1
The change in gene expression of KLF4 upon zinc depletion following compound 3 treatment was determined by RT-PCR as follows. HT-29 cells were treated with 1 μM compound 3 for the indicated time (FIG. 39A) or HT-29 cells were treated with 1 μM compound 3, 35 μM ZnCl2 or compund 3 and ZnCl2 together for 16 hr (FIG. 39B). Total RNA was extracted and gene expression level was determined by RT-PCR.
Fold change in KLF4 gene expression was presented relative to KLF4 expression in non-specific siRNA-transfected cells treated with vehicle control.

[17] = system: intracellular zinc ions in HT-29 cells; test: Chelation of intracellular zinc in HT-29 cells, Zinquin fluorescence; assay type: cell-based, human; details: HT-29 with or without pre-loading with 35 μM ZnCl2, 30 min
Method: To determine the chelation property of compound 3 with intracellular zinc ions, HT-29 cells, with or without pre-loaded with 35 μM ZnCl2 were treated with compound 3, a known zinc chelator TPEN or vehicle control (DMSO), and intracellular free zinc was determined by measuring Zinquin fluorescence as described in the preceding Example (FIG. 37). HT-29 cells (4×10^5 cells/group) were pre-treated with 35 μM ZnCl2 for 20 min, followed by addition of indicated concentrations of compound 3 or TPEN and 10 μM Zinquin for 30 min at 37° C., and the fluorescence count was measured (FIG. 37A). For measurement of chelation of endogenous zinc ions in HT-29 cells, HT-29 cells (1.5×10^6 cells/group) were treated with indicated concentrations of compound 3 and 10 μM Zinquin for 30 min at 37° C., and the fluorescence count was measured (FIG. 37B).

[18] = system: metallothionein 1A (MT1A); test: Metallothionein 1A (MT1A) mRNA expression in HT-29 cells, real time PCR; assay type: cell-based, human; details: HT-29, versus DMSO control, in words
Method: as §3
The effect of compound 3 and compound 7 treatment on the expressions of a zinc-storage protein meallothionein 1A (MT1A) (FIG. 29A), a copper transporter, Ctrl also known as SLC31A1 (FIG. 29B) and an iron transporter; transferrin receptor 1 (TfR1) (FIG. 29C) were measured and compared with a known zinc chelator TPEN, a copper chelator tetramine and an iron chelator DFO, respectively. Despite in vitro chelation of Cu^+2, increase in copper-sensitive gene after compound 3 treatment was transient.
HT-29 cells were treated with 1 μM compound 3 for the indicated time and MT1A gene expression was measured as follows. Total RNA was extracted using TRIZOL method and gene expression level was determined by quantitative reverse-transcription polymerase chain reaction (RT-PCR). MT1A gene expression was normalized with β-actin gene expression in the same sample. Fold change in MT1A was expressed relative to MT1A level of DMSO control at respective time points.
To verify that the MT1A gene expression reflected the intracellular zinc level, HT-29 cells were treated with 1 μM compound 3, 35 μM ZnCl2 or compound 3 and ZnCl2 together for 16 hr (FIG. 38B). MT1A gene expression was determined by RT-PCR as described above. MT1A gene expression was elevated in response to increased intracellular zinc ions in ZnCl2-treated cells.
The ability of compounds of Formula I to modulate gene expression of MT1A (FIG. 55A), MTF-1 (FIG. 55B), Cyclin D1 (FIG. 55C) and KLF4 (FIG. 55D) was determined by RT-PCR. HT-29 cells were treated with 1 μM compound 3 or compound 7, 35 μM ZnCl2, compound 3 and ZnCl2 together, or compound 7 and ZnCl2 together for 8 to 16 hr. The respective gene expression was normalized with β-actin gene expression in the same sample. Fold change in gene expression was expressed relative to the respective gene level of DMSO control.
The effect of compound 3 and compound 64 on gene expression changes in MT1A (FIG. 57A), MTF-1 (FIG. 57B), Cyclin D1 (FIG. 57C) and KLF4 (FIG. 57D) in HT-29 cells was determined by RT-PCR. HT-29 cells were treated with 1 μM compound 3 or compound 64, 35 μM ZnCl2, compound 3 and ZnCl2 together, or compound 64 and ZnCl2 together for 8 to 16 hr. The respective gene expression was normalized with β-actin gene expression in the same sample. Fold change in gene expression was expressed relative to the respective gene level of DMSO control.

[19] = HT-29, XTT, as Example 13, Table 7
[20] = HT-29 colon, Table 8, read-out: IC50 (cell growth inhibition)

Structure (SMILES)	KLF4 (gene fold increase) (KLF4 [1]) [fold]	KLF4 (gene fold increase) (KLF4 [2]) [fold]	KLF4 (gene fold increase) (KLF4 [3]) [fold]	IC50 [4] [nM]	IC50 [5, 19] [µg/mL]	IC50 [5, 20] [nM]	IC50 (CCRF-CEM leukemia cells) [nM]	KLF4 (gene fold increase) (KLF4 [6]) [fold]	KLF4 (gene fold increase) (KLF4 [7]) [fold]	IC50 (MOLT-4 leukemia cells) [nM]	KLF4 (gene fold increase) (KLF4 [8]) [fold]	IC50 (H-460 lung cancer cells) [nM]	KLF4 (gene fold increase) (KLF4 [9]) [fold]	IC50 [10] [nM]	KLF4 (gene fold increase) (KLF4 [11]) [fold]	IC50 [12] [nM]	IC50 [13] [nM]	IC50 (SK-MEL-2 melanoma cells) [nM]	IC50 [14] [nM]	KLF4 (gene fold increase) (KLF4 [15]) [fold]	also measured
Cc1ccc2[nH]c(C34CC5CC(CC(C5)C3)C4)c(-c3nc4c5cccnc5c5ncccc5c4[nH]3)c2c1 [Compound 69]	276.28	7.46	3.11	400	0.2	200	200	8.91	4	200	1.61	400	0.95	160	1.95	3300	600	180	340	74.29	KLF4 (gene fold increase) (KLF4 [16]): 6.54 fold
CC(C)(C)c1ccc2[nH]c(C(C)(C)C)c(-c3nc4c5cccnc5c5ncccc5c4[nH]3)c2c1 [Compound 63]	223.63	12.95	2.82	400	0.2	200	300	7.67	5.46	200	1.77	400	1.34	300	1.55	3700	500	170	320	76.37	KLF4 (gene fold increase) (KLF4 [16]): 5.98 fold
c1ccc(CN(CCN(Cc2ccccn2)Cc2ccccn2)Cc2ccccn2)nc1 [TPEN, NNNN-tetrakis(2-pyridyl-methyl)ethylenediamine, reference compound]	–	–	–	–	–	–	–	–	–	–	–	–	–	–	–	–	–	–	–	–	intracellular free zinc (Zinquin fluorescence) [17]: Dose-dependent decrease in both pre-loaded zinc and endogenous zinc levels; MT1A gene expression, change [18]: decreased the expression of MT1A

— patent US8148392B2, “2-indolyl imidazo [4,5-d] phenanthroline derivatives and their use in the treatment of cancer” (Lorus Therapeutics Inc., priority 2005, dated 2012)
